This passage reports EC50 results from patent US10202368B2, “CXCR7 receptor modulators” (IDORSIA PHARMACEUTICALS LTD, priority 2014, dated 2019).

Chain of CXCR7 (P25106 whole entry): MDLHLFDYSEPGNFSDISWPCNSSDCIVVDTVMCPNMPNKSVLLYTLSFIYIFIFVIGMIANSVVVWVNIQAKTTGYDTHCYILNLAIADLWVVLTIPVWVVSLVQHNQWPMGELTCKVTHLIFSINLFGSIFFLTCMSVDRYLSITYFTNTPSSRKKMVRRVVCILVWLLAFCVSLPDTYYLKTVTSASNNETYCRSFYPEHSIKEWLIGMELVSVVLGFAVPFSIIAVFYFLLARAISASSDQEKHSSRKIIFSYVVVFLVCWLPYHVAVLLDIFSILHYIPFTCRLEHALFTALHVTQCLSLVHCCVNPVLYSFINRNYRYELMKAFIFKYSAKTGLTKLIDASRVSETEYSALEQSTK
Chain of CXCR7 (P32121 whole entry partner): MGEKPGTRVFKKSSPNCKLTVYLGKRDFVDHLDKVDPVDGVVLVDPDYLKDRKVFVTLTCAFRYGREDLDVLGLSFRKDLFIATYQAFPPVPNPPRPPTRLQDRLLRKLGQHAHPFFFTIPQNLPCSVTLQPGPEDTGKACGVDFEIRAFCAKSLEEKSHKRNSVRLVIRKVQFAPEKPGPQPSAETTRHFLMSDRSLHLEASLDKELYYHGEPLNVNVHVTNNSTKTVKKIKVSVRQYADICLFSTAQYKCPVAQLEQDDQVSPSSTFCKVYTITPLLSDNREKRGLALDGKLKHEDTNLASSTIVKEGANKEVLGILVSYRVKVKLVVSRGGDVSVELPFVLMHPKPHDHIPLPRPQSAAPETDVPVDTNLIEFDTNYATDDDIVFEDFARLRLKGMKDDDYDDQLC

In the assay the target is CXCR7 (Homo sapiens (Human), UniProt P25106). In words: PathHunter CHO-K1 CXCR7 β-arrestin assay (agonistic activity). It counts as cell-based. The settings on record: β-arrestin recruitment in PathHunter CHO-K1 CXCR7 β-arrestin cells, 90 minutes at 37° C., geometric mean values. As to the method:
The CXCI12 receptor and CXCR7 agonistic activities of the compounds of formula (I) are determined in accordance with the following experimental method.
The assay is using the PathHunter™ CHO-K1 CXCR7 β-arrestin cell line from DiscoverX. The system is based on the Enzyme Fragment Complementation Technology. Two complementing fragments of the β-galactosidase enzyme are expressed within stably transfected cells. The larger portion of β-gal, termed EA for Enzyme Acceptor, is fused to the C-terminus of b-arrestin 2. The smaller fragment, termed ProLink™ tag, is fused to CXCR7 at the C-terminus. Upon activation, b-arrestin is recruited which forces the interaction of ProLink and EA, allowing complementation of the two fragments of b-gal and the formation of a functional enzyme which is capable of hydrolysing the substrate and generating a chemiluminescent signal.
CHO-K1 CXCR7 β-arrestin cells are detached from culture dishes with a cell dissociation buffer (Invitrogen, #13151-014) and collected in growing medium (F12 HAMS 90% (v/v)/FCS 10% (v/v), Penicillin/streptomycin 1% (v/v)). 5000 cells per well (in 20 μl) are seeded in a 384 well plate (white-walled, clear bottom; BD Falcon #353274). The plate is incubated at 37° C./5% CO2 for 24 hours. Medium is then replaced by 20 μl OPTIMEM (Invitrogen #31985) for 3 to 4 hours. Test compounds are dissolved at 10 mM in DMSO and serially diluted in DMSO to 200× of the final concentration for dose response curves. Compounds are then diluted 1:33.3 in HBSS1X. 5 μl/well of HBSS1X/20 mM HEPES/0.2% BSA are added to the assay plate followed by addition of 5 μl/well of diluted compounds. CXCL12 (Peprotech #300-28A) may be used as a reference agonist. The plate is incubated for 90 minutes at 37° C. 12 μl of detection reagent (Path Hunter Detection Kit, DiscoveRx, #93-0001) is transferred to the assay plate and to the plate is incubated for 1 hour at room temperature. Luminescent signal is read in a microplate reader (FLUOstar Optima, bmg). The calculated EC50 values may fluctuate depending on the daily cellular assay performance. Fluctuations of this kind are known to those skilled in the art. Average EC50 values from several measurements are given as geometric mean values.
On the technique in general: Activated receptors often draw arrestin, which recruitment assays turn into a signal.
Turning to “2-(4-Cyclopropylmethyl-1-methyl-2,3,4,5-tetrahydro-1H-benzo[e][1,4]diazepin-9-ylamino)-N-(2-morpholin-4-yl-ethyl)-N-(3-trifluoromethyl-pyridin-2-ylmethyl)-acetamide [Example 55]”, the response was half-maximal at 10 nM (EC50).

`CC(C)CN1CCOc2c(cccc2NCC(=O)N(CCN(C)C)Cc2ccccc2C(F)(F)F)C1` [Example 1, N-(2-Dimethylamino-ethyl)-2-(4-isobutyl-2,3,4,5-tetrahydro-benzo[f][1,4]oxazepin-9-ylamino)-N-(2-trifluoromethyl-benzyl)-acetamide] came in with an EC50 of 8 nM.

The molecule `CC(C)CN1CCOc2c(cccc2NCC(=O)N(CCN(C)C)Cc2ncccc2C(F)(F)F)C1` [Example 2, N-(2-Dimethylamino-ethyl)-2-(4-isobutyl-2,3,4,5-tetrahydro-benzo[f][1,4]oxazepin-9-ylamino)-N-(3-trifluoromethyl-pyridin-2-ylmethyl)-acetamide] showed an EC50 of 3 nM.

The molecule `CC(C)CN1CCOc2c(cccc2NCC(=O)N(CCN(C)C)Cc2ncccc2Cl)C1` [Example 3, N-(3-Chloro-pyridin-2-ylmethyl)-N-(2-dimethylamino-ethyl)-2-(4-isobutyl-2,3,4,5-tetrahydro-benzo[f][1,4]oxazepin-9-ylamino)-acetamide] registered an EC50 of 9 nM.

In turn, `CCN1CCOc2c(cccc2NCC(=O)N(CCN(C)C)Cc2ncccc2Cl)C1` [Example 4, N-(3-Chloro-pyridin-2-ylmethyl)-N-(2-dimethylamino-ethyl)-2-(4-ethyl-2,3,4,5-tetrahydro-benzo[f][1,4]oxazepin-9-ylamino)-acetamide] registered a concentration giving a half-maximal response (EC50) of 24 nM.

In turn, `CCN1CCOc2c(cccc2NCC(=O)N(CCN(C)C)Cc2ccccc2C(F)(F)F)C1` [Example 5, N-(2-Dimethylamino-ethyl)-2-(4-ethyl-2,3,4,5-tetrahydro-benzo[f][1,4]oxazepin-9-ylamino)-N-(2-trifluoromethyl-benzyl)-acetamide] yielded an EC50 of 7 nM.

Turning to `CCCN1CCOc2c(cccc2NCC(=O)N(CCN(C)C)Cc2ncccc2Cl)C1` [Example 6, N-(3-Chloro-pyridin-2-ylmethyl)-N-(2-dimethylamino-ethyl)-2-(4-propyl-2,3,4,5-tetrahydro-benzo[f][1,4]oxazepin-9-ylamino)-acetamide], the EC50 was found to be 19 nM.

Take `CCCN1CCOc2c(cccc2NCC(=O)N(CCN(C)C)Cc2ccccc2C(F)(F)F)C1` [Example 7, N-(2-Dimethylamino-ethyl)-2-(4-propyl-2,3,4,5-tetrahydro-benzo[f][1,4]oxazepin-9-ylamino)-N-(2-trifluoromethyl-benzyl)-acetamide]: it took 4 nM to reach a half-maximal effect (EC50).

`CC(C)CN1CCOc2c(cccc2NCC(=O)N(CCN(C)C)Cc2cccc(Br)c2)C1` [Example 8, N-(3-Bromo-benzyl)-N-(2-dimethylamino-ethyl)-2-(4-isobutyl-2,3,4,5-tetrahydro-benzo[f][1,4]oxazepin-9-ylamino)-acetamide] registered an EC50 of 36 nM.

Molecule `COc1ccnc(CN(CCN(C)C)C(=O)CNc2cccc3c2OCCN(CC(C)C)C3)c1` [Example 9, N-(2-Dimethylamino-ethyl)-2-(4-isobutyl-2,3,4,5-tetrahydro-benzo[f][1,4]oxazepin-9-ylamino)-N-(4-methoxy-pyridin-2-ylmethyl)-acetamide] returned an EC50 of 200 nM.

As for `CC(C)CN1CCOc2c(cccc2NCC(=O)N(CCN(C)C2CC2)Cc2ccccc2C(F)(F)F)C1` [Example 10, N-[2-(Cyclopropyl-methyl-amino)-ethyl]-2-(4-isobutyl-2,3,4,5-tetrahydro-benzo[f][1,4]oxazepin-9-ylamino)-N-(2-trifluoromethyl-benzyl)-acetamide], the EC50 was determined as 58 nM.

As for `CC(C)CN1CCOc2c(cccc2NCC(=O)N(CCN2CCCC2=O)Cc2ccccc2C(F)(F)F)C1` [Example 11, 2-(4-Isobutyl-2,3,4,5-tetrahydro-benzo[f][1,4]oxazepin-9-ylamino)-N-[2-(2-oxo-pyrrolidin-1-yl)-ethyl]-N-(2-trifluoromethyl-benzyl)-acetamide], the midpoint of the response, the EC50, lay at 190 nM.

In turn, `CC(C)CN1CCOc2c(cccc2NCC(=O)N(CCN2CCCC2)Cc2ccc(F)cc2F)C1` [Example 12, N-(2,4-Difluoro-benzyl)-2-(4-isobutyl-2,3,4,5-tetrahydro-benzo[f][1,4]oxazepin-9-ylamino)-N-(2-pyrrolidin-1-yl-ethyl)-acetamide] displayed an EC50 of 14 nM.

The molecule `CC(C)CN1CCOc2c(cccc2NCC(=O)N(CCN2CCC(F)(F)CC2)Cc2ncccc2Cl)C1` [Example 13, N-(3-Chloro-pyridin-2-ylmethyl)-N-[2-(4,4-difluoro-piperidin-1-yl)-ethyl]-2-(4-isobutyl-2,3,4,5-tetrahydro-benzo[f][1,4]oxazepin-9-ylamino)-acetamide] came in with an EC50 of 88 nM.

On to `Cc1ccnc(CN(CCN(C)C)C(=O)CNc2cccc3c2OCCN(CC(C)C)C3)c1` [Example 14, N-(2-Dimethylamino-ethyl)-2-(4-isobutyl-2,3,4,5-tetrahydro-benzo[f][1,4]oxazepin-9-ylamino)-N-(4-methyl-pyridin-2-ylmethyl)-acetamide], for which a half-maximal response (EC50) required 76 nM.

For the molecule `CC(C)CN1CCOc2c(cccc2NCC(=O)N(CCN2CCCC2)Cc2ccccc2Cl)C1` [Example 15, N-(2-Chloro-benzyl)-2-(4-isobutyl-2,3,4,5-tetrahydro-benzo[f][1,4]oxazepin-9-ylamino)-N-(2-pyrrolidin-1-yl-ethyl)-acetamide], the midpoint of the response, the EC50, lay at 11 nM.

On to `CC(C)CN1CCOc2c(cccc2NCC(=O)N(CCN2CCOCC2)Cc2ccccc2C(F)(F)F)C1` [Example 16, 2-(4-Isobutyl-2,3,4,5-tetrahydro-benzo[f][1,4]oxazepin-9-ylamino)-N-(2-morpholin-4-yl-ethyl)-N-(2-trifluoromethyl-benzyl)-acetamide], for which the EC50 came to 74 nM.

In turn, `CC(C)CN1CCOc2c(cccc2NCC(=O)N(CCN(C)C)Cc2ccc(F)cc2C(F)(F)F)C1` [Example 17, N-(2-Dimethylamino-ethyl)-N-(4-fluoro-2-trifluoromethyl-benzyl)-2-(4-isobutyl-2,3,4,5-tetrahydro-benzo[f][1,4]oxazepin-9-ylamino)-acetamide] returned an EC50 of 59 nM.

In the case of `CC(C)CN1CCOc2c(cccc2NCC(=O)N(CCN(C)C)Cc2cccc(C(F)(F)F)c2)C1` [Example 18, N-(2-Dimethylamino-ethyl)-2-(4-isobutyl-2,3,4,5-tetrahydro-benzo[f][1,4]oxazepin-9-ylamino)-N-(3-trifluoromethyl-benzyl)-acetamide], the EC50 stood at 53 nM.

As to `CC(C)CN1CCOc2c(cccc2NCC(=O)N(CCN(C)C)Cc2c(F)cccc2F)C1` [Example 19, N-(2,6-Difluoro-benzyl)-N-(2-dimethylamino-ethyl)-2-(4-isobutyl-2,3,4,5-tetrahydro-benzo[f][1,4]oxazepin-9-ylamino)-acetamide], the concentration for a half-maximal effect (EC50) was 12 nM.

In turn, `CC(=O)N1CCOc2c(cccc2NCC(=O)N(CCN(C)C)Cc2ccccc2C(F)(F)F)C1` [Example 20, 2-(4-Acetyl-2,3,4,5-tetrahydro-benzo[f][1,4]oxazepin-9-ylamino)-N-(2-dimethylamino-ethyl)-N-(2-trifluoromethyl-benzyl)-acetamide] gave an EC50 of 73 nM.

With `CCN1CCNc2c(cccc2NCC(=O)N(CCN(C)C)Cc2ccccc2C(F)(F)F)C1` [Example 21, N-(2-(dimethylamino)ethyl)-2-((4-ethyl-2,3,4,5-tetrahydro-1H-benzo[e][1,4]diazepin-9-yl)amino)-N-(2-(trifluoromethyl)benzyl)acetamide], the EC50 came out at 6 nM.

As for `CN(C)CCN(Cc1ccccc1C(F)(F)F)C(=O)CNc1cccc2c1CN(CC1CC1)CCO2` [Example 22, 2-(4-Cyclopropylmethyl-2,3,4,5-tetrahydro-benzo[f][1,4]oxazepin-6-ylamino)-N-(2-dimethylamino-ethyl)-N-(2-trifluoromethyl-benzyl)-acetamide], the response was half-maximal at 4 nM (EC50).

Turning to `CN(C)CCN(Cc1ccccc1C(F)(F)F)C(=O)COc1cccc2c1CCN(CC1CC1)CC2` [Example 23, 2-(3-Cyclopropylmethyl-2,3,4,5-tetrahydro-1H-benzo[d]azepin-6-yloxy)-N-(2-dimethylamino-ethyl)-N-(2-trifluoromethyl-benzyl)-acetamide], the concentration for a half-maximal effect (EC50) came out at 1 nM.

With `COCC(=O)N1CCc2cccc(OCC(=O)N(CCN(C)C)Cc3ccccc3C(F)(F)F)c2CC1` [Example 24, N-(2-Dimethylamino-ethyl)-2-[3-(2-methoxy-acetyl)-2,3,4,5-tetrahydro-1H-benzo[d]azepin-6-yloxy]-N-(2-trifluoromethyl-benzyl)-acetamide], it took 3 nM to reach a half-maximal effect (EC50).

For orientation: EC50 means the concentration at which the effect is half-maximal. Lower therefore signals higher potency in that assay.
